Data from PubChem BioAssay AID1963447 (Molecular Pharmacology Branch, DTP, NCI, 2024).

Tested on: 885512-296-R-J2-PDC complex spheroid growth, % test/control
Test: Anticancer human tumor 885512-296-R-J2-PDC patient-derived breast carcinoma cell line growth inhibition [Asc]
Conditions: for IC50: curve of first compound; for viability, T/C: stronger effect = lower value
How it was run: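 Concentration series start at each agent's clinical Cmax, or at 10 microM when none is established, and drop in half-log steps; agents are applied alone or together to complex spheroids built with HUVEC and hMSC.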

[1] = second compound 0.01 µM, first compound 0.00316 µM
[2] = second compound 0.01 µM, first compound 0.01 µM
[3] = second compound 0.01 µM, first compound 0.0316 µM
[4] = second compound 0.01 µM, first compound 0.1 µM
[5] = second compound 0.0316 µM, first compound 0.00316 µM
[6] = second compound 0.0316 µM, first compound 0.01 µM
[7] = second compound 0.0316 µM, first compound 0.0316 µM
[8] = second compound 0.0316 µM, first compound 0.1 µM
[9] = second compound 0.1 µM, first compound 0.00316 µM
[10] = second compound 0.1 µM, first compound 0.01 µM
[11] = second compound 0.1 µM, first compound 0.0316 µM
[12] = second compound 0.1 µM, first compound 0.1 µM
[13] = second compound 0.316 µM, first compound 0.00316 µM
[14] = second compound 0.316 µM, first compound 0.01 µM
[15] = second compound 0.316 µM, first compound 0.0316 µM
[16] = second compound 0.316 µM, first compound 0.1 µM
[17] = second compound 1 µM, first compound 0.00316 µM
[18] = second compound 1 µM, first compound 0.01 µM
[19] = second compound 1 µM, first compound 0.0316 µM
[20] = second compound 1 µM, first compound 0.1 µM
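Further: spheroids exposed to compounds for seven days.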
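Wherever viability, T/C is given: 100% = DMSO vehicle control wells.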

IC50 (second compound 0.01 µM) [nM]	IC50 (second compound 0.0316 µM) [nM]	IC50 (second compound 0.1 µM) [nM]	IC50 (second compound 0.316 µM) [nM]	IC50 (second compound 1 µM) [nM]	Compound	viability, T/C [1] [%]	viability, T/C [2] [%]	viability, T/C [3] [%]	viability, T/C [4] [%]	viability, T/C [5] [%]	viability, T/C [6] [%]	viability, T/C [7] [%]	viability, T/C [8] [%]	viability, T/C [9] [%]	viability, T/C [10] [%]	viability, T/C [11] [%]	viability, T/C [12] [%]	viability, T/C [13] [%]	viability, T/C [14] [%]	viability, T/C [15] [%]	also measured
207	> 1000	742	> 1000	> 1000	CCN1CCN(Cc2ccc(Nc3ncc(F)c(-c4cc(F)c5nc(C)n(C(C)C)c5c4)n3)nc2)CC1 + CNC(C)C(=O)NC1CN(S(=O)(=O)c2cccc(S(=O)(=O)N3CCC4CCC(C(=O)NC(c5ccccc5)c5ccccc5)N4C(=O)C(NC(=O)C(C)NC)C3)c2)CCC2CCC(C(=O)NC(c3ccccc3)c3ccccc3)N2C1=O	79.9	104	82.6	56.7	102	106	104	82.6	115	107	116	91.4	110	112	103	viability, T/C (second compound 0.01 µM, first compound 0.316 µM): 49.2%; viability, T/C (second compound 0.01 µM, first compound 1 µM): 26%; viability, T/C (second compound 0.0316 µM, first compound 0.316 µM): 71.6%; viability, T/C (second compound 0.0316 µM, first compound 1 µM): 49.9%; viability, T/C (second compound 0.1 µM, first compound 0.316 µM): 71.3%; viability, T/C (second compound 0.1 µM, first compound 1 µM): 42.7%; viability, T/C [16]: 90.8%; viability, T/C (second compound 0.316 µM, first compound 0.316 µM): 64.6%; viability, T/C (second compound 0.316 µM, first compound 1 µM): 50.3%; viability, T/C [17]: 112%; viability, T/C [18]: 112%; viability, T/C [19]: 111%; viability, T/C [20]: 87.5%; viability, T/C (second compound 1 µM, first compound 0.316 µM): 87.6%; viability, T/C (second compound 1 µM, first compound 1 µM): 68.3%
26.2	17.6	23.4	15.3	21.3	Cn1ncnc1[C@H]1c2n[nH]c(=O)c3cc(F)cc(c23)N[C@@H]1c1ccc(F)cc1 + CNC(C)C(=O)NC1CN(S(=O)(=O)c2cccc(S(=O)(=O)N3CCC4CCC(C(=O)NC(c5ccccc5)c5ccccc5)N4C(=O)C(NC(=O)C(C)NC)C3)c2)CCC2CCC(C(=O)NC(c3ccccc3)c3ccccc3)N2C1=O	73.5	63.4	47.7	26.2	92.3	60.5	40.1	31.2	90.8	70.5	42.9	22.4	94.6	56	42.4	viability, T/C (second compound 0.01 µM, first compound 0.000316 µM): 86%; viability, T/C (second compound 0.01 µM, first compound 0.001 µM): 71.1%; viability, T/C (second compound 0.0316 µM, first compound 0.000316 µM): 98.5%; viability, T/C (second compound 0.0316 µM, first compound 0.001 µM): 96.5%; viability, T/C (second compound 0.1 µM, first compound 0.000316 µM): 102%; viability, T/C (second compound 0.1 µM, first compound 0.001 µM): 100%; viability, T/C (second compound 0.316 µM, first compound 0.000316 µM): 98%; viability, T/C (second compound 0.316 µM, first compound 0.001 µM): 100%; viability, T/C [16]: 27.6%; viability, T/C (second compound 1 µM, first compound 0.000316 µM): 108%; viability, T/C (second compound 1 µM, first compound 0.001 µM): 97.1%; viability, T/C [17]: 98.2%; viability, T/C [18]: 65.6%; viability, T/C [19]: 42.5%; viability, T/C [20]: 26.2%
